Source: patent EP4603105A1, “PHARMACEUTICAL COMPOSITION CONTAINING CYCLIC COMPOUND HAVING SELECTIVE KRAS INHIBITORY EFFECT AGAINST HRAS AND NRAS” (CHUGAI SEIYAKU KABUSHIKI KAISHA, priority 2022, dated 2024)
One block for each molecule: values may come before it. *1 amine or outer side, *2 acyl side, *3 side chain or, on linkers, in order; H or OH if unused. Where a SMILES comes first, the peptide text is derived from it. Bridges are numbered along the chain shown (N, C = ends). [ ]: non-standard residue; d: D form. The star is where a group is joined. hPhe(3-Cl-4-CF3) = N[C@@H](CCc1ccc(C(F)(F)F)c(Cl)c1)C(=O)O; X8 = CCCN([C@@H](COCCC(C)C)C(=O)[*:2])[*:1]; NMeGly(cPent) = CN[C@H](C(=O)O)C1CCCC1; NMeD = CN[C@@H](CC(=O)O)C(=O)O; NMeL = CN[C@@H](CC(C)C)C(=O)O; Morpholide = C1CN(*)CCO1; NMeA = CN[C@@H](C)C(=O)O; Aze = O=C(O)[C@@H]1CCN1; Ac4c = NC1(C(=O)O)CCC1; Sar = CNCC(=O)O

Legend:
[1] = target: GDP-bound NRAS wild-type protein (Homo sapiens, UniProt P01111); assay: Binding to NRAS by surface plasmon resonance (SPR), KD and KD ratio to KRAS; conditions: ratio of KD value for GDP-bound NRAS wild-type protein to KD value for KRAS (SPR)
GDP-bound NRAS wild-type protein, sequence (P01111 whole entry): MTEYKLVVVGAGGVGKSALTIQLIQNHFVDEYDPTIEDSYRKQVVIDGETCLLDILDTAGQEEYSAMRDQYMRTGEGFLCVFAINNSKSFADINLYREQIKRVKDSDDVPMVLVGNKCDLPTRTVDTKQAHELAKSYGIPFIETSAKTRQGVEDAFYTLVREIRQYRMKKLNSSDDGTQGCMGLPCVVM
Outline: (§1)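 GDP-loaded biotinylated Avi-tag RAS proteins (E. coli-expressed) captured on a Biotin CAPture chip at ~100–300 RU; single-cycle kinetics at 30°C, 100 µL/min, 75 s injections of rising compound concentrations. HBS pH 7.4 running buffer with 1 mM DTT, 10 mM MgCl2, 10 µM GDP, 4% DMSO. KD from 1:1 binding fit.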

[2] = tested on: human lung cancer strain NCI-H441; assay type: cell-based
Outline: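 Readout: […] after the ATP-based reagent. Compound: serial dilutions in dimethyl sulfoxide.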

[3] = target: GDP-bound KRAS wild-type protein (Homo sapiens, UniProt P01116); assay: Binding to KRAS by surface plasmon resonance (SPR), dissociation constant KD; conditions: Single Cycle Kinetics, 1:1 binding model
GDP-bound KRAS wild-type protein, sequence (P01116 1-188 isoform P01116-2): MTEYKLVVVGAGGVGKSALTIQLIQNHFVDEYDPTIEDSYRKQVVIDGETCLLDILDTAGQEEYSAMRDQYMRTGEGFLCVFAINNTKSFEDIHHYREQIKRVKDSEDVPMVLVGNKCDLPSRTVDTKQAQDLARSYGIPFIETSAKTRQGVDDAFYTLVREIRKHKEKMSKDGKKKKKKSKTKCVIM
Outline: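 Measured at 30°C: SPR with GDP-loaded, E. coli-expressed biotin-Avi RAS captured (~100–300 RU), ascending 75 s compound injections, HBS pH 7.4 with GDP, MgCl2, 4% DMSO. KD from 1:1 fit.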

HRAS wild-type protein = HRAS wild-type protein (Homo sapiens, UniProt P01112); assay: Binding to HRAS by surface plasmon resonance (SPR), KD and KD ratio to KRAS; conditions: ratio of KD value for HRAS wild-type protein to KD value for KRAS (SPR)
HRAS wild-type protein, sequence (P01112 whole entry): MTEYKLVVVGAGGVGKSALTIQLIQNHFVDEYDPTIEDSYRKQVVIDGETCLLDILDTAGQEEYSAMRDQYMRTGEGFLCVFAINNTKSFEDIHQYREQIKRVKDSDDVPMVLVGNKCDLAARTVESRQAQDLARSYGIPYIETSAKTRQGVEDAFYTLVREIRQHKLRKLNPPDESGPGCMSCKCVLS
Outline: as §1

Structure (SMILES): CCO[C@@H]1C[C@H]2C(=O)NC3(CCC3)C(=O)N(C)[C@@H](C3CCCC3)C(=O)N(C)[C@H](C(=O)N(C)CC)CC(=O)N(C)[C@@H](CC3CCC3)C(=O)N[C@@H]([C@@H](C)CC)C(=O)N(C)CC(=O)N(C)[C@H]3C/C=C\CCN(C3=O)[C@@H](Cc3ccc(C(F)(F)F)cc3)C(=O)N(C)CC(=O)N[C@@H](CCc3cc(F)c(C(F)(F)F)c(F)c3)C(=O)N2C1 [PP1667]
NRAS /KRAS [1]: A (a compound having 10 or more and less than 20 is denoted as A) | IC50 [2]: 2 nM | Kd [3]: 0.081 nM | HRAS /KRAS (HRAS wild-type protein): A (a compound having 10 or more and less than 20 is denoted as A)

Structure (SMILES): CCO[C@@H]1C[C@H]2C(=O)NC3(CCC3)C(=O)N(C)[C@@H](C3CCCC3)C(=O)N(C)[C@H](C(=O)N(C)CC)CC(=O)N(C)[C@@H](CC(F)(F)F)C(=O)N[C@@H]([C@@H](C)CC)C(=O)N(C)CC(=O)N(C)[C@H]3C/C=C\CCN(C3=O)[C@@H](Cc3ccc(C(F)(F)F)cc3)C(=O)N(C)CC(=O)N[C@@H](CCc3cc(F)c(C(F)(F)F)c(F)c3)C(=O)N2C1 [PP1701]
NRAS /KRAS [1]: A (a compound having 10 or more and less than 20 is denoted as A) | IC50 [2]: 3.7 nM | Kd [3]: 0.08 nM | HRAS /KRAS (HRAS wild-type protein): A (a compound having 10 or more and less than 20 is denoted as A)

Structure (SMILES): CCCC[C@H]1C(=O)N[C@@H]([C@@H](C)CC)C(=O)N(C)CC(=O)N(C)[C@H]2C/C=C\CCN(C2=O)[C@@H](Cc2ccc(C(F)(F)F)cc2)C(=O)N(C)CC(=O)N[C@@H](CCc2cc(F)c(C(F)(F)F)c(F)c2)C(=O)N2C[C@H](OCC)C[C@H]2C(=O)NC2(CC(F)(F)C2)C(=O)N(C)[C@@H](C2CCCC2)C(=O)N(C)[C@H](C(=O)N(C)C)CC(=O)N1C [PP1740]
NRAS /KRAS [1]: A (a compound having 10 or more and less than 20 is denoted as A) | IC50 [2]: 3.6 nM | Kd [3]: 0.053 nM | HRAS /KRAS (HRAS wild-type protein): A (a compound having 10 or more and less than 20 is denoted as A)

Structure (SMILES): CC[C@H](C)[C@@H]1NC(=O)[C@H](C2CC2)N(C)C(=O)C[C@@H](C(=O)N(C)C)N(C)C(=O)[C@H](C2CCCC2)N(C)C(=O)C2(CCC2)N(C)C(=O)[C@@H]2C[C@@H](C)CN2C(=O)[C@H](CCc2cc(F)c(C(F)(F)F)c(F)c2)NC(=O)CN(C)C(=O)[C@H](Cc2ccc(C)cc2)N2CC/C=C\C[C@@H](C2=O)N(C)C(=O)CN(C)C1=O [PP1788]
NRAS /KRAS [1]: B (a compound having 3 or more and less than 10 is denoted as B) | IC50 [2]: 6.2 nM | Kd [3]: 0.063 nM | HRAS /KRAS (HRAS wild-type protein): B (a compound having 3 or more and less than 10 is denoted as B)

Structure (SMILES): CCO[C@@H]1C[C@H]2C(=O)N(C)C3(CCC3)C(=O)N(C)[C@@H](C3CCCC3)C(=O)N(C)[C@H](C(=O)N(C)C)CC(=O)N(C)[C@@H](CC3CC3)C(=O)N[C@@H]([C@@H](C)CC)C(=O)N(C)CC(=O)N(C)[C@H]3C/C=C\CCN(C3=O)[C@@H](Cc3ccc(C)cc3)C(=O)N(C)CC(=O)N[C@@H](CCc3cc(F)c(C(F)(F)F)c(F)c3)C(=O)N2C1 [PP1795]
NRAS /KRAS [1]: A (a compound having 10 or more and less than 20 is denoted as A) | IC50 [2]: 3 nM | Kd [3]: 0.031 nM | HRAS /KRAS (HRAS wild-type protein): B (a compound having 3 or more and less than 10 is denoted as B)

Structure (SMILES): CC[C@H](C)[C@@H]1NC(=O)[C@H](CC2CC2)N(C)C(=O)C[C@@H](C(=O)N(C)C)N(C)C(=O)[C@H](C2CCCC2)N(C)C(=O)C2(CCC2)N(C)C(=O)[C@@H]2C[C@@H](C)CN2C(=O)[C@H](CCc2cc(F)c(C(F)(F)F)c(F)c2)NC(=O)CN(C)C(=O)[C@H](Cc2ccc(C)cc2)N2CC/C=C\C[C@@H](C2=O)N(C)C(=O)[C@@H]2CCCN2C1=O [PP1801]
NRAS /KRAS [1]: A (a compound having 10 or more and less than 20 is denoted as A) | IC50 [2]: 13 nM | Kd [3]: 0.21 nM | HRAS /KRAS (HRAS wild-type protein): B (a compound having 3 or more and less than 10 is denoted as B)

Structure (SMILES): CC[C@H](C)[C@@H]1NC(=O)[C@H](CC2CCC2)N(C)C(=O)C[C@@H](C(=O)N(C)C)N(C)C(=O)[C@H](C2CCCC2)N(C)C(=O)C2(CCC2)N(C)C(=O)[C@@H]2C[C@@H](C)CN2C(=O)[C@H](CCc2cc(F)c(C(F)(F)F)c(F)c2)NC(=O)CN(C)C(=O)[C@H](Cc2ccc(C)cc2)N2CC/C=C\C[C@@H](C2=O)N(C)C(=O)CN(C)C1=O [PP1803]
NRAS /KRAS [1]: A (a compound having 10 or more and less than 20 is denoted as A) | IC50 [2]: 7.6 nM | Kd [3]: 0.1 nM | HRAS /KRAS (HRAS wild-type protein): B (a compound having 3 or more and less than 10 is denoted as B)

Structure (SMILES): CCCN1C(=O)[C@@H]2CCN2C(=O)[C@H](C)N(C)C(=O)[C@H]([C@@H](C)CC)NC(=O)[C@H](CC(C)C)N(C)C(=O)C[C@@H](C(=O)N2CCOCC2)N(C)C(=O)[C@H](C2CCCC2)N(C)C(=O)C2(CCC2)NC(=O)[C@@H]2CCCN2C(=O)[C@H](CCc2ccc(C(F)(F)F)c(Cl)c2)NC(=O)CN(C)C(=O)[C@@H]1COCCC(C)C [PP1819] ([NMeL]I[NMeA][Aze][X8][Sar][hPhe(3-Cl-4-CF3)]P[Ac4c][NMeGly(cPent)][NMeD]-Morpholide; lactam N-11)
NRAS /KRAS [1]: C (A compound having a KD ratio of 0.1 or more and less than 3 is denoted as C) | IC50 [2]: 149 nM | Kd [3]: 1 nM | HRAS /KRAS (HRAS wild-type protein): C (A compound having a KD ratio of 0.1 or more and less than 3 is denoted as C)

The next lines start with results.

IC50 [2]: 6.7 nM | Kd [3]: 0.044 nM
Structure (SMILES): CC[C@H](C)[C@@H]1NC(=O)[C@H](CC)N(C)C(=O)C[C@@H](C(=O)N(C)C)N(C)C(=O)[C@H](C2CCCC2)N(C)C(=O)C2(CCC2)N(C)C(=O)[C@@H]2CCCN2C(=O)[C@H](CCc2cc(F)c(C(F)(F)F)c(F)c2)NC(=O)CN(C)C(=O)[C@H](Cc2ccc(C)cc2)N2CC/C=C\C[C@@H](C2=O)N(C)C(=O)CN(C)C1=O [PP1782]
NRAS /KRAS [1]: A (a compound having 10 or more and less than 20 is denoted as A) | HRAS /KRAS (HRAS wild-type protein): B (a compound having 3 or more and less than 10 is denoted as B)

IC50 [2]: 9 nM | Kd [3]: 0.071 nM
Structure (SMILES): CC[C@H](C)[C@@H]1NC(=O)[C@H](CC)N(C)C(=O)C[C@@H](C(=O)N(C)C)N(C)C(=O)[C@H](C2CCCC2)N(C)C(=O)C2(CCC2)N(C)C(=O)[C@@H]2C[C@@H](C)CN2C(=O)[C@H](CCc2cc(F)c(C(F)(F)F)c(F)c2)NC(=O)CN(C)C(=O)[C@H](Cc2ccc(C)cc2)N2CC/C=C\C[C@@H](C2=O)N(C)C(=O)CN(C)C1=O [PP1787]
NRAS /KRAS [1]: A (a compound having 10 or more and less than 20 is denoted as A) | HRAS /KRAS (HRAS wild-type protein): B (a compound having 3 or more and less than 10 is denoted as B)

IC50 [2]: 3.7 nM | Kd [3]: 0.042 nM
Structure (SMILES): CC[C@H](C)[C@@H]1NC(=O)[C@H](CC(C)C)N(C)C(=O)C[C@@H](C(=O)N(C)C)N(C)C(=O)[C@H](C2CCCC2)N(C)C(=O)C2(CCC2)N(C)C(=O)[C@@H]2CCCN2C(=O)[C@H](CCc2cc(F)c(C(F)(F)F)c(F)c2)NC(=O)CN(C)C(=O)[C@H](Cc2ccc(C)cc2)N2CC/C=C\C[C@@H](C2=O)N(C)C(=O)CN(C)C1=O [PP1791]
NRAS /KRAS [1]: A (a compound having 10 or more and less than 20 is denoted as A) | HRAS /KRAS (HRAS wild-type protein): A (a compound having 10 or more and less than 20 is denoted as A)

IC50 [2]: 8.7 nM | Kd [3]: 0.06 nM
Structure (SMILES): CCC[C@H]1C(=O)N[C@@H]([C@@H](C)CC)C(=O)N(C)CC(=O)N(C)[C@H]2C/C=C\CCN(C2=O)[C@@H](Cc2ccc(C)cc2)C(=O)N(C)CC(=O)N[C@@H](CCc2cc(F)c(C(F)(F)F)c(F)c2)C(=O)N2CCC[C@H]2C(=O)N(C)C2(CCC2)C(=O)N(C)[C@@H](C2CCCC2)C(=O)N(C)[C@H](C(=O)N(C)C)CC(=O)N1C [PP1794]
NRAS /KRAS [1]: A (a compound having 10 or more and less than 20 is denoted as A) | HRAS /KRAS (HRAS wild-type protein): B (a compound having 3 or more and less than 10 is denoted as B)

IC50 [2]: 6.5 nM | Kd [3]: 0.051 nM
Structure (SMILES): CC[C@H](C)[C@@H]1NC(=O)[C@H](CC2CC2)N(C)C(=O)C[C@@H](C(=O)N(C)C)N(C)C(=O)[C@H](C2CCCC2)N(C)C(=O)C2(CCC2)N(C)C(=O)[C@@H]2C[C@@H](C)CN2C(=O)[C@H](CCc2cc(F)c(C(F)(F)F)c(F)c2)NC(=O)CN(C)C(=O)[C@H](Cc2ccc(C)cc2)N2CC/C=C\C[C@@H](C2=O)N(C)C(=O)CN(C)C1=O [PP1800]
NRAS /KRAS [1]: A (a compound having 10 or more and less than 20 is denoted as A) | HRAS /KRAS (HRAS wild-type protein): A (a compound having 10 or more and less than 20 is denoted as A)

IC50 [2]: 7.8 nM | Kd [3]: 0.59 nM
Structure (SMILES): CC[C@H](C)[C@@H]1NC(=O)[C@H](CC)N(C)C(=O)C[C@@H](C(=O)N(C)C)N(C)C(=O)[C@H](C2CCCC2)N(C)C(=O)C2(CCCC2)N(C)C(=O)[C@@H]2C[C@@H](C)CN2C(=O)[C@H](CCc2cc(F)c(C(F)(F)F)c(F)c2)NC(=O)CN(C)C(=O)[C@H](Cc2ccc(C)cc2)N2CC/C=C\C[C@@H](C2=O)N(C)C(=O)CN(C)C1=O [PP1812]
NRAS /KRAS [1]: A (a compound having 10 or more and less than 20 is denoted as A) | HRAS /KRAS (HRAS wild-type protein): A (a compound having 10 or more and less than 20 is denoted as A)
